In patent US20100273801A1, “BETULIN DERIVED COMPOUNDS USEFUL AS ANTIBACTERIAL AGENTS” (Valition teknillinen tutikimuskeskus, priority 2006, published 2010):
Structures can show the parent of a compound that is named as a salt. Where two headings read alike, the source gives them in different places.

Key:
S. epidermidis = experiment: turbidometric bacterial growth inhibition on a 96 well plate; details: for percent growth inhibition S. epidermidis 4 h / percent growth inhibition S. epidermidis 24 h: compound 1 mg/ml; for inhibition at 0.1 µg/mL / inhibition at 1 µg/mL / inhibition at 1000 µg/mL: Staphylococcus epidermidis
Description: (§1) The antimicrobial efficiency of betulin derived compounds against Staphylococcus aureus, Staphylococcus epidemidis, Micrococcus luteus and Bacillus subtilis was studied using a turbidometric method on a 96 well plate.
(§2) After juvenescence, suspension cultivation was prepared from the bacterial strains in the Todd-Hewitt broth. The suspension was introduced with a pipette to a 96 well plate, followed by the addition of the compound to be tested (3 parallel tests for each compound). […] Erythromycin was used as the control. Bacterial growth was monitored by measuring the absorbances of the samples at 620 nm at 0, 1, 2, 3, 4 and 24 hours. The sample plate was incubated at 37° C. in a shaker (250 rpm) between the measurements. Effects of the compounds on bacterial growth were evaluated by comparison of the growths of exposed and unexposed samples.

Staphylococcus aureus = experiment: as above; details: for percent growth inhibition S. aureus 4 h / percent growth inhibition S. aureus 24 h: compound 1 mg/ml; for inhibition at 0.1 µg/mL / inhibition at 1 µg/mL / inhibition at 1000 µg/mL: Staphylococcus aureus
Description: as §1, §2

Micrococcus luteus = experiment: as above; details: for percent growth inhibition M. luteus 4 h / percent growth inhibition M. luteus 24 h: compound 1 mg/ml; for inhibition at 0.1 µg/mL / inhibition at 1 µg/mL / inhibition at 1000 µg/mL: Micrococcus luteus
Description: as §1, §2

Bacillus subtilis = experiment: as above; details: for percent growth inhibition B. subtilis 4 h / percent growth inhibition B. subtilis 24 h: compound 1 mg/ml; for inhibition at 0.1 µg/mL / inhibition at 1 µg/mL / inhibition at 1000 µg/mL: Bacillus subtilis
Description: as §1, §2

bacteria = experiment: antibacterial activity of compounds derived from betulin (summary statement); format: cell-based; details: already at a concentration of 1 μg/ml
Description: Erythromycin was used as the control.

[1] = 4 h, read-out: percent growth inhibition S. epidermidis 4 h
[2] = 24 h, read-out: percent growth inhibition S. epidermidis 24 h
[3] = 4 h, read-out: percent growth inhibition S. aureus 4 h
[4] = 24 h, read-out: percent growth inhibition S. aureus 24 h
[5] = 4 h, read-out: percent growth inhibition M. luteus 4 h
[6] = 24 h, read-out: percent growth inhibition M. luteus 24 h
[7] = 4 h, read-out: percent growth inhibition B. subtilis 4 h
[8] = 24 h, read-out: percent growth inhibition B. subtilis 24 h

Row | Compound | percent growth inhibition S. epidermidis 4 h (S. epidermidis; 4 h) | percent growth inhibition S. epidermidis 24 h (S. epidermidis; 24 h) | percent growth inhibition S. aureus 4 h (Staphylococcus aureus; 4 h) | percent growth inhibition S. aureus 24 h (Staphylococcus aureus; 24 h) | percent growth inhibition M. luteus 4 h (Micrococcus luteus; 4 h) | percent growth inhibition M. luteus 24 h (Micrococcus luteus; 24 h) | percent growth inhibition B. subtilis 4 h (Bacillus subtilis; 4 h) | percent growth inhibition B. subtilis 24 h (Bacillus subtilis; 24 h) | further results
1 | C=C(C)[C@@H]1CC[C@]2(COC(=O)c3ccccc3NC(C)=O)CC[C@]3(C)C(CCC4[C@@]5(C)CC[C@H](O)C(C)(C)C5CC[C@]43C)C12 (stereo partly shown) [Compound 29, 28-N-acetylanthranilic acid ester of betulin] | 66.6% | 20.2% | 102.6% | 103.4% | 89.9% | 60.5% | 100.8% | 54.6% | antibacterial activity (bacteria): considerable antibacterial activity
2 | C=C(C)[C@@H]1CC[C@]2(COS(C)(=O)=O)CC[C@]3(C)[C@H](CC[C@@H]4[C@@]5(C)CC[C@H](OC(C)=O)C(C)(C)[C@@H]5CC[C@]43C)[C@@H]12 [Compound 25, betulin 3-acetate-28 mesylate] | 3.2% | 12.7% | 6.9% | 0.0% | 1.6% | 12.4% | 0.0% | 15.2% | 
3 | 3,28-octanedioic acid ester of betulin [Compound 10] | 0.0% | 1.7% | 0.0% | 0.0% | 0.0% | 2.7% | 0.0% | 2.6% | 
4 | CC[C@H]1OC(=O)[C@H](C)[C@@H](O[C@H]2C[C@@](C)(OC)[C@@H](O)[C@H](C)O2)[C@H](C)[C@@H](O[C@@H]2O[C@H](C)C[C@H](N(C)C)[C@H]2O)[C@](C)(O)C[C@@H](C)C(=O)[C@H](C)[C@@H](O)[C@]1(C)O [Compound 31, erythromycin, reference compound] |  |  |  |  |  |  |  |  | inhibition at 0.1 µg/mL (S. epidermidis; [1]): 100%; inhibition at 1 µg/mL (S. epidermidis; [1]): 100%; inhibition at 0.1 µg/mL (S. epidermidis; [2]): 90.8%; inhibition at 1 µg/mL (S. epidermidis; [2]): 100%; inhibition at 0.1 µg/mL (Staphylococcus aureus; [3]): 53.6%; inhibition at 1 µg/mL (Staphylococcus aureus; [3]): 79.8%; inhibition at 0.1 µg/mL (Staphylococcus aureus; [4]): 11.7%; inhibition at 1 µg/mL (Staphylococcus aureus; [4]): 72.1%; inhibition at 0.1 µg/mL (Micrococcus luteus; [5]): 96.1%; inhibition at 1 µg/mL (Micrococcus luteus; [5]): 100%; inhibition at 0.1 µg/mL (Micrococcus luteus; [6]): 100%; inhibition at 1 µg/mL (Micrococcus luteus; [6]): 100%; inhibition at 0.1 µg/mL (Bacillus subtilis; [7]): 95.6%; inhibition at 1 µg/mL (Bacillus subtilis; [7]): 100%; inhibition at 0.1 µg/mL (Bacillus subtilis; [8]): 100%; inhibition at 1 µg/mL (Bacillus subtilis; [8]): 100%
5 | 3,28-C18-dialkenylsuccinic acid diester of betulin [Compound 20] | 0.0% | 0.0% | 0.0% | 0.0% | 0.0% | 12.6% | 0.0% | 9.0% | 
6 | C=C(C)C1CCC2(COC(=O)C=Cc3ccccc3)CCC3(C)C(CCC4C5(C)CCC(O)C(C)(C)C5CCC43C)C12 (stereo not shown) [Compound 30, 28-cinnamic acid ester of betulin] | 8.5% | 0.0% | 13.0% | 0.0% | 0.0% | 0.0% | 5.9% | 11.1% | 
7 | C=C(C)[C@@H]1CC[C@]2(COC(=O)COc3cc(C(C)C)ccc3C)CC[C@]3(C)[C@H](CC[C@@H]4[C@@]5(C)CC[C@H](O)C(C)(C)[C@@H]5CC[C@]43C)[C@@H]12 [Compound 23, 28-carvacrolacetic acid ester of betulin] | 6.8% | 0.0% | 9.9% | 11.1% | 0.0% | 0.1% | 0.7% | 7.3% | 
8 | C=C(C)[C@@H]1CC[C@]2(C(=O)O)CC[C@]3(C)[C@H](CC[C@@H]4[C@@]5(C)CCC(=O)C(C)(C)[C@@H]5CC[C@]43C)[C@@H]12 [Compound 5, betulonic acid] | 52.7% | 0.0% | 51.6% | 0.0% | 91.3% | 0.0% | 102.3% | 0.0% | antibacterial activity (bacteria): considerable antibacterial activity
9 | 3,28-diisostearic acid ester of betulin [Compound 1] | 0.0% | 0.0% | 2.1% | 0.0% | 8.8% | 7.6% | 0.0% | 8.9% | 
10 | 28-C18-alkenylsuccinic acid diester of betulin [Compound 21] | 0.0% | 0.0% | 0.0% | 0.0% | 0.0% | 10.1% | 0.0% | 6.9% | 
11 | betulin 3,28-diacetate-18-19-diene [Compound 6] | 0.0% | 0.0% | 0.0% | 0.0% | 0.0% | 1.5% | 0.0% | 3.7% | 
12 | C=C(C)[C@@H]1CC[C@]2(C(=O)NC(CC(=O)OC)C(=O)OC)CC[C@]3(C)C(CCC4[C@@]5(C)CCC(=O)C(C)(C)C5CC[C@]43C)C12 (stereo partly shown) [Compound 8, 28-aspartate dimethylesteramide of betulonic acid] |  |  |  |  |  |  |  |  | inhibition at 1000 µg/mL (S. epidermidis; [1]): 0%; inhibition at 1000 µg/mL (S. epidermidis; [2]): 0%; inhibition at 1000 µg/mL (Staphylococcus aureus; [3]): 0%; inhibition at 1000 µg/mL (Staphylococcus aureus; [4]): 0%; inhibition at 1000 µg/mL (Micrococcus luteus; [5]): 0%; inhibition at 1000 µg/mL (Micrococcus luteus; [6]): 0%; inhibition at 1000 µg/mL (Bacillus subtilis; [7]): 0%; inhibition at 1000 µg/mL (Bacillus subtilis; [8]): 5.8%
